{"source": "patent US20110104281A1", "about": "“METHOD FOR TREATING PAIN USING A SUBSTITUTED 2-AMINOTETRALIN COMPOUND” (UCB PHARMA GMBH, priority 2006, published 2011)", "system": "Sprague Dawley rats", "test": "TNF model of muscular mechanical hyperalgesia: withdrawal threshold to muscle pressure (Randall-Selitto)", "format": "in vivo, rat", "conditions": "for % MPE on withdrawal pressure, Mean: TNF model", "method": "The TNF test is used as a model of muscular mechanical hyperalgesia, which occurs in human fibromyalgia, myofascial pain or back pain. Intramuscular injection of tumor necrosis factor alpha (TNF) induces mechanical muscle hyperalgesia in rats. This is quantified by measuring the withdrawal threshold to muscle pressure and the grip strength. Mechanical withdrawal threshold to muscle pressure is measured with an analgesimeter exerting pressure on the gastrocnemius muscle previously injected with TNF. Forelimb grip strength is measured with a digital grip force meter after TNF injection into biceps brachii muscles. […] See, for example, […] et al., Pain 104(3):579-588 (2003). Adult male Sprague Dawley rats, from Charles River Sulzfeld, Germany, with a body weight of 220 g to 300 g were group-housed (3 animals per cage) and maintained in a room with controlled temperature (21-22° C.) and a reversed light-dark cycle (12 h/12 h) with food and water available ad libitum. […] All rats were habituated to the behavioral tests before injections and baseline values were recorded over three test days. Mechanical withdrawal thresholds to muscle pressure were measured with an analgesimeter (Ugo Basile, Comerio, Italy) according to the Randall-Selitto method. The rats were permitted to crawl into a sock, allowing them to relax. […] The pressure needed to elicit withdrawal was recorded. […] Three pre-tests were performed on days -3, -2 and -1, testing the left and right side in succession. Pre-test values varied only minimally over these 3 days. The mean withdrawal threshold for the 3 pre-test days was determined and taken for analysis. Only animals with a significant TNF effect were included for further analysis. The rats were injected with TNF into the gastrocnemius muscle. […] The rats were then placed in groups of 10 and treated with 0.3, 1.0 or 3.0 mg/kg rotigotine or vehicle i.p. Injection volume of i.p. injections was 0.5 ml/kg (weight dependent). Grip strength was again tested after 15 to 60 minutes, following injection of the rotigotine. Data are shown in graphs displaying means and SEMs. Pre- and post-treatment data were compared by ANOVA (analysis of variance) and a Tukey post hoc test. […] Maximal possible effects (MPE) were calculated for all types of treatment.", "data": [{"compound": "CCCN(CCc1cccs1)[C@H]1CCc2c(O)cccc2C1", "note": "[Rotigotine, 5,6,7,8-tetrahydro-6-[propyl-[2-(2-thienyl)ethyl]amino]-1-naphthol]", "values": [{"measurement": "% MPE on withdrawal pressure, Mean", "setting": "rotigotine 0.3 mg/kg", "result": "−6.6", "unit": "%"}, {"measurement": "% MPE on withdrawal pressure, Mean", "setting": "rotigotine 1 mg/kg", "result": 4.8, "unit": "%"}, {"measurement": "Reduction of muscular hyperalgesia induced by TNF injected into muscle", "setting": "rats, 0.3, 1 and 3 mg/kg i.p., conclusion of the study", "result": "dose-dependent reduction of muscular hyperalgesia"}, {"measurement": "Withdrawal pressure, Mean", "setting": "with TNF i.m. into gastrocnemius, rotigotine 0.3 mg/kg i.p.", "result": 5.6, "unit": "g"}, {"measurement": "Withdrawal pressure, Mean", "setting": "with TNF i.m. into gastrocnemius, rotigotine 1 mg/kg i.p.", "result": 6.5, "unit": "g"}, {"measurement": "Withdrawal pressure, Mean", "setting": "with TNF i.m. into gastrocnemius, rotigotine 3 mg/kg i.p.", "result": 6.5, "unit": "g"}, {"measurement": "Withdrawal pressure, Mean", "setting": "without TNF, rotigotine 0.3 mg/kg i.p.", "result": 9.1, "unit": "g"}, {"measurement": "Withdrawal pressure, Mean", "setting": "without TNF, rotigotine 3 mg/kg i.p.", "result": 9.7, "unit": "g"}]}]}
